Source: patent publication US8759558B2, “Sulphur containing lipids for use as food supplement or as medicament” (Pronova Biopharma Norge AS, priority 2008, dated 2014)

Assays:
PPARα = biological target: T1, PPARα (Homo sapiens, UniProt Q07869); assay: PPARα activation in-vitro, mammalian-one-hybrid (M1H) luciferase reporter assay, concentration response; assay type: cell-based; settings: GAL4-DBD-PPARα-LBD, transiently transfected HEK293 cells; for PPARα Efficacy: positive control GW7647
T1 construct: expressed in transfected cells; host or cells: HEK293 cells, transiently transfected
T1 sequence (Q07869 239-466 limits assumed): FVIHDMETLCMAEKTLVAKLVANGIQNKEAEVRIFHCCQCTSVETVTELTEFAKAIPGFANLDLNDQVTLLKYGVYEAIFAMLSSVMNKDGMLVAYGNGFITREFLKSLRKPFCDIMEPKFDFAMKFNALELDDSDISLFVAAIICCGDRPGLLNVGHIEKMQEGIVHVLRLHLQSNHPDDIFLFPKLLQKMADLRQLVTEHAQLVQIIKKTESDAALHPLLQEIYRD
Description: The assay was carried out in-vitro using mammalian-one-hybrid assays (M1H) comprising GAL4-DNA binding domain-PPARα-LBD fusion constructs in conjunction with 5×GAL4-sites driven Photinus pyralis luciferase reporter construct in transiently transfected HEK293 cells.

Wistar rat = Wistar rat model; Willumsen et al 1997; cited from earlier work

EC50 (PPARα) [nM] | PPARα Efficacy (PPARα) [%] | SMILES | plasma triglycerides (Wistar rat)
286 | 84 | CC/C=C\C/C=C\C/C=C\C/C=C\C/C=C\CCCCSC(CC)(CC)C(=O)O [Compound (12), 2-ethyl-2-((5Z,8Z,11Z,14Z,17Z)-icosa-5,8,11,14,17-pentaenylthio)butanoic acid] | –
– | 100 | CC(C)(Sc1ccc(CCN(CCCCC2CCCCC2)C(=O)NC2CCCCC2)cc1)C(=O)O [GW7647] | –
– | – | CC/C=C\C/C=C\C/C=C\C/C=C\CCSCC(=O)OC [Methyl (all-Z)-3-thia-6,9,12,15-octadecatetraenoate] | lowered plasma triglycerides to a similar extent
